Measured values published in ChEMBL document CHEMBL6127062, “Targeted degradation of METTL3 against acute myeloid leukemia and gastric cancer” (Eur J Med Chem, 2024).
Blank lines part the entries; values can stand above or below the molecule they belong to. The source made the active and inactive calls. The calls are words filed in the database; no cut-off is given here.

Columns and labels:
[1] = tested on: HeLa; assay: Binding affinity to METTL3/GFP-fused BRD4 (unknown origin) expressed in HeLa cells presence of MZ1 by Western blot analysis; assay type: cell-based; conditions: Homo sapiens
[2] = target: T1, von Hippel-Lindau disease tumor suppressor/N(6)-adenosine-methyltransferase catalytic subunit METTL3 (Homo sapiens, UniProt P40337+Q86U44); assay: PROTAC activity at VHL/METTL3 (unknown origin) expressed in HeLa cells assessed as reduction in BRD4-eGFP_mCherry level incubated for 4 hrs in presence of MZ1 by flow cytometry analysis; assay type: cell-based
T1 sequence (Q86U44 2-580 partner limits assumed): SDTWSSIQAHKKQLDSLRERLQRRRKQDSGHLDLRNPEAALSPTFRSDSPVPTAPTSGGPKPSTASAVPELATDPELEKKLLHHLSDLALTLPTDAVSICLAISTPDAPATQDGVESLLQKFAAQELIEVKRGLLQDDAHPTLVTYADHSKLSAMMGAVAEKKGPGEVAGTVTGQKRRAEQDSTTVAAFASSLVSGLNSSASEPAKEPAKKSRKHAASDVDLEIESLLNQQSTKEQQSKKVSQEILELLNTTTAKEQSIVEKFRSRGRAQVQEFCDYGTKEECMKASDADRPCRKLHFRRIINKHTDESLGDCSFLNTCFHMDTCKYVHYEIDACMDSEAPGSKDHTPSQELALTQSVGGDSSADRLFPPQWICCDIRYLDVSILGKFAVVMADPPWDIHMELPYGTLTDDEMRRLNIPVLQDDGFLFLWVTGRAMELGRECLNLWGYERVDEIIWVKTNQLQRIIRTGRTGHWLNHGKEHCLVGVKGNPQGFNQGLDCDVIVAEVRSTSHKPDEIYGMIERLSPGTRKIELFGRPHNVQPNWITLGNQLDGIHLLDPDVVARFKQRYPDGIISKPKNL
T1 sequence (P40337 whole entry): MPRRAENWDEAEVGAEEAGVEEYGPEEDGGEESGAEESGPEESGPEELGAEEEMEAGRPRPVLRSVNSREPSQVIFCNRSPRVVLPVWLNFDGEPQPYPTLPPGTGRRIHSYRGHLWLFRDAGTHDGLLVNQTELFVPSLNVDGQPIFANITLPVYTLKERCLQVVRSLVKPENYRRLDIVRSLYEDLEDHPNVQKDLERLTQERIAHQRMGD

[3] = target: N6-adenosine-methyltransferase catalytic subunit (Homo sapiens) (UniProt Q86U44); assay: Induction of thermal stabilization of METTL3 in human MOLM-13 cells at 52.4 to 54.8 degreeC incubated for 1 hrs by cellular thermal shift assay; assay type: cell-based
N6-adenosine-methyltransferase catalytic subunit (Homo sapiens), sequence (Q86U44 whole entry): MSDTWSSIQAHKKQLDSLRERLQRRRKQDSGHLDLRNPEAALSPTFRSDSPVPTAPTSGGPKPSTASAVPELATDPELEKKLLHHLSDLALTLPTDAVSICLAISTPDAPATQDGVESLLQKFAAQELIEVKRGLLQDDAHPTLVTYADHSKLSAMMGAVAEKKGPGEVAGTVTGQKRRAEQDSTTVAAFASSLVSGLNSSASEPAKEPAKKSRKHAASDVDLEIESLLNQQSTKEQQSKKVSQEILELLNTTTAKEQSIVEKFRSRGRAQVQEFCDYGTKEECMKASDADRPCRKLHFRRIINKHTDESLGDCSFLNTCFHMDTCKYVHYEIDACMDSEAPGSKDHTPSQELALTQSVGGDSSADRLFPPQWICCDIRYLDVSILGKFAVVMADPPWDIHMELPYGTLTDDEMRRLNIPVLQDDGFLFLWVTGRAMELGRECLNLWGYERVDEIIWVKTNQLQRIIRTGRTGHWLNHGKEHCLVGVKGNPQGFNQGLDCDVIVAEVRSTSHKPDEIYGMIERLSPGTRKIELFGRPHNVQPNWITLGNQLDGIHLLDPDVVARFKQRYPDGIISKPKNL

[4] = target: T1, von Hippel-Lindau disease tumor suppressor/N(6)-adenosine-methyltransferase catalytic subunit METTL3; assay: PROTAC activity at VHL/METTL3 in human MOLM-13 cells assessed as reduction in METTL3 level at 1 uM incubated for 24 hrs by Western blot analysis; assay type: cell-based
[5] = target: T2, Protein cereblon/N(6)-adenosine-methyltransferase catalytic subunit METTL3 (Homo sapiens) (UniProt Q96SW2+Q86U44); assay: PROTAC activity at CRBN/METTL3 in human MOLM-13 cells assessed as induction of METTL3 degradation at 1 uM by Western blot analysis relative to control; assay type: cell-based
T2 sequence (Q86U44 whole entry, looked up): as the sequence (Q86U44 whole entry) above
T2 sequence (Q96SW2 whole entry, looked up): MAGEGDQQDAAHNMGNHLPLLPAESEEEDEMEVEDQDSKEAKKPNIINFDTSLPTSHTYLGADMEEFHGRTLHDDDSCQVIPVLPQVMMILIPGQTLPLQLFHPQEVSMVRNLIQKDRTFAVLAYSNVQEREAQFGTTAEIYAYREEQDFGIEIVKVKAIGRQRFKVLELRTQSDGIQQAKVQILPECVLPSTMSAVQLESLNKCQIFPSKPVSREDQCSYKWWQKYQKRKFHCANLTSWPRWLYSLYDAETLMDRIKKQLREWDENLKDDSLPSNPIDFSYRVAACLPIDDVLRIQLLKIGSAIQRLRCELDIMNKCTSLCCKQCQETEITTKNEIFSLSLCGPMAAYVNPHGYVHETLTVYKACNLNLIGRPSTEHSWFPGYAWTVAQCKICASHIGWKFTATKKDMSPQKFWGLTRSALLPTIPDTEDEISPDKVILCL

[6] = target: T2, Protein cereblon/N(6)-adenosine-methyltransferase catalytic subunit METTL3 (Homo sapiens); assay: PROTAC activity at CRBN/METTL3 in human MOLM-13 cells assessed as induction of METTL3 degradation at 10 uM by Western blot analysis relative to control; assay type: cell-based
[7] = tested on: AGS; assay: Anticancer activity against human AGS cells assessed as inhibition of cell growth incubated for 72 hrs by cell viability assay; assay type: functional, cell-based
[8] = tested on: GES1; assay: Anticancer activity against human GES1 cells assessed as inhibition of cell growth incubated for 72 hrs by cell viability assay; assay type: functional, cell-based
[9] = tested on: MOLM-13; assay: Antiproliferative activity against human MOLM-13 cells assessed as inhibition of cell proliferation measured after 72 hrs by Celltiter Glo luminescent cell viability assay; assay type: functional, cell-based; conditions: MOLM-13, 72 h
[10] = tested on: SNU-484; assay: Anticancer activity against human SNU484 cells assessed as inhibition of cell growth incubated for 72 hrs by cell viability assay; assay type: functional, cell-based

Activity [2]: Active
Activity [3]: Active
Activity [4]: inactive
Compound: Cc1ncsc1-c1ccc(CNC(=O)[C@@H]2C[C@H](O)CN2C(=O)[C@@H](NC(=O)CCCCCCCNc2cc(N3CCC4(CC3)CN(c3cc(F)c(CN5CCC(C)(C)CC5)cc3F)CC(=O)N4)ncn2)C(C)(C)C)cc1
Activity [1]: Active

Activity [5]: 9%
Activity [6]: 22%
Compound: CC1(C)CCN(Cc2cc(F)c(N3CC(=O)NC4(CCN(c5cc(NCCCCCCCCCCC(=O)N6CCN(c7ccc8c(c7)C(=O)N(C7CCC(=O)NC7=O)C8=O)CC6)ncn5)CC4)C3)cc2F)CC1 (configuration not stated)

Activity [5]: 33%
Activity [6]: 29%
Compound: CC1(C)CCN(Cc2cc(F)c(N3CC(=O)NC4(CCN(c5cc(NCCCCCCCC(=O)N6CCN(c7ccc8c(c7)C(=O)N(C7CCC(=O)NC7=O)C8=O)CC6)ncn5)CC4)C3)cc2F)CC1 (configuration not stated)

IC50 [9]: 6.17 µM
Compound: CNc1cc(N2CCC3(CC2)CN(c2cc(F)c(CN4CCC(C)(C)CC4)cc2F)CC(=O)N3)ncn1
Activity [7]: inactive
Activity [8]: inactive
Activity [10]: inactive
